Measured values taken from PubChem BioAssay (NCI).
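Results reflect a 48-hour exposure of cells in 96-well plates to compound at five concentrations. The concentration for full growth arrest is given as TGI.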

Assays:
Assay in all cases: NCI tumour cell line growth inhibition, 48 h
SR leukemia = tested on: SR leukemia
HT29 colon = tested on: HT29 colon
DU-145 prostate = tested on: DU-145 prostate
NCI-H522 lung = tested on: NCI-H522 lung
SF-539 CNS = tested on: SF-539 CNS
MDA-MB-435 = tested on: MDA-MB-435
CAKI-1 renal = tested on: CAKI-1 renal
NCI-H226 lung = tested on: NCI-H226 lung
PC-3 prostate = tested on: PC-3 prostate
MALME-3M melanoma = tested on: MALME-3M melanoma
SF-268 CNS = tested on: SF-268 CNS
SK-MEL-5 melanoma = tested on: SK-MEL-5 melanoma
M14 melanoma = tested on: M14 melanoma
HOP-92 NSCLC = tested on: HOP-92 NSCLC
COLO 205 colon = tested on: COLO 205 colon
NCI/ADR-RES ovarian = tested on: NCI/ADR-RES ovarian
MDA-N = tested on: MDA-N
RPMI-8226 leukemia = tested on: RPMI-8226 leukemia
A549 NSCLC = tested on: A549 NSCLC
MCF7 breast = tested on: MCF7 breast
MOLT-4 leukemia = tested on: MOLT-4 leukemia
HCC-2998 colon = tested on: HCC-2998 colon
UO-31 renal = tested on: UO-31 renal
HCT-116 colon = tested on: HCT-116 colon
HS 578T breast = tested on: HS 578T breast
EKVX NSCLC = tested on: EKVX NSCLC
IGROV1 ovarian = tested on: IGROV1 ovarian
OVCAR-8 ovarian = tested on: OVCAR-8 ovarian
786-0 renal = tested on: 786-0 renal
T-47D breast = tested on: T-47D breast
SF-295 CNS = tested on: SF-295 CNS
SK-OV-3 ovarian = tested on: SK-OV-3 ovarian
U251 CNS = tested on: U251 CNS
SK-MEL-2 melanoma = tested on: SK-MEL-2 melanoma
SW-620 colon = tested on: SW-620 colon
TK-10 renal = tested on: TK-10 renal
OVCAR-5 ovarian = tested on: OVCAR-5 ovarian
CCRF-CEM leukemia = tested on: CCRF-CEM leukemia
HOP-62 NSCLC = tested on: HOP-62 NSCLC
K-562 leukemia = tested on: K-562 leukemia
SNB-75 CNS = tested on: SNB-75 CNS
OVCAR-3 ovarian = tested on: OVCAR-3 ovarian
HCT-15 colon = tested on: HCT-15 colon
SNB-19 CNS = tested on: SNB-19 CNS
UACC-62 melanoma = tested on: UACC-62 melanoma
BT-549 breast = tested on: BT-549 breast
ACHN renal = tested on: ACHN renal
KM12 colon = tested on: KM12 colon
OVCAR-4 ovarian = tested on: OVCAR-4 ovarian
SN12C renal = tested on: SN12C renal
SK-MEL-28 melanoma = tested on: SK-MEL-28 melanoma
RXF 393 renal = tested on: RXF 393 renal
MDA-MB-231 breast = tested on: MDA-MB-231 breast
UACC-257 melanoma = tested on: UACC-257 melanoma
HL-60(TB) leukemia = tested on: HL-60(TB) leukemia
LOX IMVI melanoma = tested on: LOX IMVI melanoma
NCI-H23 lung = tested on: NCI-H23 lung
NCI-H460 lung = tested on: NCI-H460 lung

CC(C)COP(=O)(OCC(C)C)C(NS(=O)(=O)c1ccccc1)(C(F)(F)F)C(F)(F)F
TGI (SR leukemia): 38.1 µM
TGI (HT29 colon): 25.4 µM
TGI (DU-145 prostate): 29.8 µM
TGI (NCI-H522 lung): 17.4 µM
TGI (SF-539 CNS): 29.1 µM
TGI (MDA-MB-435): 22.3 µM
TGI (CAKI-1 renal): 18.6 µM
TGI (NCI-H226 lung): 39.9 µM
TGI (PC-3 prostate): 31.7 µM
TGI (MALME-3M melanoma): 32.4 µM
TGI (SF-268 CNS): 34.7 µM
TGI (SK-MEL-5 melanoma): 33 µM
TGI (M14 melanoma): 43.2 µM
TGI (HOP-92 NSCLC): 7.64 µM
TGI (COLO 205 colon): 3.94 µM
TGI (NCI/ADR-RES ovarian): 23.6 µM
TGI (MDA-N): 20.6 µM
TGI (RPMI-8226 leukemia): 6.46 µM
TGI (A549 NSCLC): 14.4 µM
TGI (MCF7 breast): > 100 µM
TGI (MOLT-4 leukemia): 14.9 µM
TGI (HCC-2998 colon): 18.5 µM
TGI (UO-31 renal): 7.4 µM
TGI (HCT-116 colon): 21.7 µM
TGI (HS 578T breast): 97.9 µM
TGI (EKVX NSCLC): 19 µM
TGI (IGROV1 ovarian): 16.8 µM
TGI (OVCAR-8 ovarian): 25.5 µM
TGI (786-0 renal): 25.7 µM
TGI (T-47D breast): 9.34 µM
TGI (SF-295 CNS): 37 µM
TGI (SK-OV-3 ovarian): 29.9 µM
TGI (U251 CNS): 17.3 µM
TGI (SK-MEL-2 melanoma): 14.3 µM
TGI (SW-620 colon): 41.6 µM
TGI (TK-10 renal): 15.6 µM
TGI (OVCAR-5 ovarian): 38.1 µM
TGI (CCRF-CEM leukemia): 36.6 µM
TGI (HOP-62 NSCLC): 35.1 µM
TGI (K-562 leukemia): > 100 µM
TGI (SNB-75 CNS): 12.6 µM
TGI (OVCAR-3 ovarian): 23.8 µM
TGI (HCT-15 colon): 23.8 µM
TGI (SNB-19 CNS): 54.1 µM
TGI (UACC-62 melanoma): 19.1 µM
TGI (BT-549 breast): 19.6 µM
TGI (ACHN renal): 10.2 µM
TGI (KM12 colon): 14.4 µM
TGI (OVCAR-4 ovarian): 13.5 µM
TGI (SN12C renal): 18.8 µM
TGI (SK-MEL-28 melanoma): 37.1 µM
TGI (RXF 393 renal): 21.1 µM
TGI (MDA-MB-231 breast): 5.56 µM
TGI (UACC-257 melanoma): 17.5 µM
TGI (HL-60(TB) leukemia): 4.13 µM
TGI (LOX IMVI melanoma): 13.6 µM
TGI (NCI-H23 lung): 14.2 µM

CC(O)C1CC1(CO)CNc1cc(Cl)nc(N)n1 (stereo not drawn)
TGI (SR leukemia): > 100 µM
TGI (HT29 colon): > 100 µM
TGI (DU-145 prostate): > 100 µM
TGI (NCI-H522 lung): > 100 µM
TGI (SF-539 CNS): > 100 µM
TGI (MDA-MB-435): > 100 µM
TGI (CAKI-1 renal): > 100 µM
TGI (NCI-H226 lung): > 100 µM
TGI (PC-3 prostate): > 100 µM
TGI (MALME-3M melanoma): > 100 µM
TGI (SF-268 CNS): > 100 µM
TGI (SK-MEL-5 melanoma): > 100 µM
TGI (HOP-92 NSCLC): > 100 µM
TGI (COLO 205 colon): > 100 µM
TGI (NCI/ADR-RES ovarian): > 100 µM
TGI (MDA-N): > 100 µM
TGI (RPMI-8226 leukemia): > 100 µM
TGI (A549 NSCLC): > 100 µM
TGI (MCF7 breast): > 100 µM
TGI (MOLT-4 leukemia): > 100 µM
TGI (HCC-2998 colon): > 100 µM
TGI (UO-31 renal): > 100 µM
TGI (HCT-116 colon): > 100 µM
TGI (HS 578T breast): > 100 µM
TGI (EKVX NSCLC): > 100 µM
TGI (IGROV1 ovarian): > 100 µM
TGI (OVCAR-8 ovarian): > 100 µM
TGI (786-0 renal): > 100 µM
TGI (T-47D breast): > 100 µM
TGI (SF-295 CNS): > 100 µM
TGI (SK-OV-3 ovarian): > 100 µM
TGI (U251 CNS): > 100 µM
TGI (SK-MEL-2 melanoma): > 100 µM
TGI (SW-620 colon): > 100 µM
TGI (TK-10 renal): > 100 µM
TGI (OVCAR-5 ovarian): > 100 µM
TGI (CCRF-CEM leukemia): > 100 µM
TGI (HOP-62 NSCLC): > 100 µM
TGI (K-562 leukemia): > 100 µM
TGI (SNB-75 CNS): > 100 µM
TGI (OVCAR-3 ovarian): > 100 µM
TGI (HCT-15 colon): > 100 µM
TGI (SNB-19 CNS): > 100 µM
TGI (BT-549 breast): > 100 µM
TGI (ACHN renal): > 100 µM
TGI (KM12 colon): > 100 µM
TGI (OVCAR-4 ovarian): > 100 µM
TGI (SN12C renal): > 100 µM
TGI (NCI-H460 lung): > 100 µM
TGI (SK-MEL-28 melanoma): > 100 µM
TGI (RXF 393 renal): > 100 µM
TGI (MDA-MB-231 breast): > 100 µM
TGI (UACC-257 melanoma): > 100 µM
TGI (HL-60(TB) leukemia): > 100 µM
TGI (LOX IMVI melanoma): > 100 µM
TGI (NCI-H23 lung): > 100 µM
